Results published in patent publication US8143307B2, “Benzothiophen-2-carbonylguanidine derivatives, preparation thereof, and pharmaceutical composition containing the same” (Korea Research Institute of Chemical Technology, priority 2004, dated 2012).

Legend:
cortical neurons = assay: Neuroprotective effect against glutamate-induced neurotoxicity; assay type: cell-based, rat; settings: for TUNEL-Positive Cells (apoptosis): 12 hours after glutamate treatment; for Free LDH Levels (necrosis): 20 hours after glutamate treatment
Procedure: Cortical neurons were isolated from the brain of 14-day-old fetal rats and cultured in Eagle's MEM (Minimum essential medium) at 37° C. in a 5% CO2 atmosphere. On day 3 or 4 of culturing, 10 μM cytosine-β-arabinofuranoside (AraC) was added to the culture medium to prevent the overgrowth of glial cells. […] On day 7˜9 of culturing, the cells were induced to cellular toxicity by treatment with 100 μM glutamate in combination with the compounds of interest or vehicle alone as a negative control. Necrosis was determined by released LDH (Lactate dehydrogenase) levels at 20 hours after glutamate treatment. For the analysis of apoptosis, the count of TUNEL (Terminal deoxynucleotidyl transferase UTP nick end labeling)-positive cells was measured at 12 hours after glutamate treatment.

[1] = system: in vivo ischemic rat heart model; assay: Cardioprotective effect on in vivo ischemic rat heart model (coronary occlusion/reperfusion, infarct size); settings: 45 min occlusion, 90 min reperfusion
Procedure: The cardioprotective effect of the benzothiophen-2-carbonylguanidine derivatives according to the present invention in in vivo ischemic hearts was judged with regard to their antischemic effects (myocardiac infarction reduction) on rats as follows.
Each male rat (300˜450 g, the Korea Research Institute of Chemical Technology, Experimental Animal Lab) was anesthetized by intraperitoneal injection with sodium pentobarbital at a dose of 75 mg/kg. Tracheotomy was performed and a tube was inserted into the trachea for subsequent artificial ventilation with a stroke volume of 10 ml/kg and a respiratory rate of 60 breaths/min. The femoral vein and the femoral artery were cannulated for the administration of the compounds and for the measurement of blood pressures, respectively. Meanwhile, the body temperature of the rats, an important factor to influence experimental results in the ischemic myocardiac injury model, was maintained constant at 37° C. using a homeothermic blanket control unit, with a body temperature-monitoring probe inserted into the rectum. Subsequently, rats were continuously measured for mean arterial blood pressure and heart rate HR throughout the experimental time period using a Statham P23XL pressure transducer (Grass Ins., Mass., USA) and an ECG/RATE Coupler (Hugo Sachs Electronic, Germany), respectively, with all continuous changes thereof recorded by Graphtec Linearcorder WR 3310 (Hugo Sachs Electronic).
The left coronary artery was occluded according to Selye H.'s method. In detail, after the chest of each rat was partially opened by left thoracotomy, the middle finger of the left hand was pressed against the right side of the chest of the rat to thrust out the heart which was then slightly fixed with the forefinger and the thumb of the same hand. Then, immediately after the left anterior descending coronary artery (LAD) was sutured with a 5-0 silk ligature, the heart was repositioned back in the thoracic cavity with both ends of the suture positioned outside. The ends of the suture were threaded through a PE tube (PE100, 2.5 cm) and allowed to stand for 20 min for stabilization. Through the cannula inserted into the femoral vein, a vehicle or the compounds of the invention were administered and 30 min was needed for sufficient effects of the administered compounds. Cariporide was used as a control. The ends of the suture threaded through the PE tube were pulled taut with hemostatic forceps to vertically press the PE tube against the coronary artery. After occlusion for 45 min, the hemostatic forceps were removed and reperfusion was conducted for 90 min.
The coronary artery was reoccluded in the same manner as described above, followed by the intravenous injection of 2 ml of 1% Evans blue. The intravenous injection of an excess of pentobarbital killed the rats, from which the hearts were then excised. The left ventricle was removed alone from the isolated heart and transected from the cardiac apex into 5 or 6 slices. Each slice was weighed. The image of each of the heart slices was captured using a Hi-scope, a compact vision system, and analyzed for blue-stained normal areas and non-stained areas with an image analyzing program (Image Pro Plus). In each slice, the area at risk (AAR) was calculated by multiplying the ratio of the non-stained area to the total area of the slice with the weight of the slice. Sum of the individual area at risk (AAR) for each slice was divided by the total weight of the left ventricle to obtain AAR (%) according to the following mathmatical formula 1.
Separately, the heat slices were incubated in 1%. 2,3,5-triphenyltetrazolium chloride (TTC) phosphate buffer (pH 7.4), 37° C., for 15 min and fixed in 10% formalin for 20˜24 hours. In the normal area of the tissue, 2,3,5-triphenyltetrazolium chloride was reduced by the myocardial dehydrogenase in the presence of the cofactor NADH to form formazan dye, which appeared as a brick-red color. […]

For `CS(=O)(=O)O.N#Cc1cccc2sc(C(=O)N=C(N)N)cc12` [Example 42, (4-Cyanobenzothiophene-2-Carbonyl)Guanidine Methanesulfonate], the “TUNEL-Positive Cells (apoptosis)” value (cortical neurons; 0.1 μM with 100 μM glutamate) was 28.6, the “Free LDH Levels (necrosis)” value (cortical neurons; 0.1 μM with 100 μM glutamate) was 58.6 and the “TUNEL-Positive Cells (apoptosis)” value (cortical neurons; 1.0 μM with 100 μM glutamate) was 23.9. For the same molecule, the “Free LDH Levels (necrosis)” value (cortical neurons; 1.0 μM with 100 μM glutamate) was 43.2, the “TUNEL-Positive Cells (apoptosis)” value (cortical neurons; 10 μM with 100 μM glutamate) was 18.8 and the “Free LDH Levels (necrosis)” value (cortical neurons; 10 μM with 100 μM glutamate) was 38.8. The “TUNEL-Positive Cells (apoptosis)” value (cortical neurons; 100 μM with 100 μM glutamate) was 12.6, the “Free LDH Levels (necrosis)” value (cortical neurons; 100 μM with 100 μM glutamate) was 32.3 and the “necrosis and apoptosis of neurons (glutamate-induced neurotoxicity)” value (cortical neurons; 0.1-100 μM with 100 μM glutamate) was “inhibited the necrosis and apoptosis of neurons in dose-dependent manners”. For the same molecule, the “Myocardiac infarction rate (IS/AAR, %)” value ([1]; 0.1 mg/kg intravenous) was 36.9% and the “Myocardiac infarction rate (IS/AAR, %)” value ([1]; 0.3 mg/kg intravenous) was 34.4%.
